# Assays:
# [1] = molecular target: T1, FAAH (Rattus norvegicus, UniProt P97612); assay: FAAH inhibition, rat brain membrane homogenate assay; type: biochemical; details: rat brain homogenate; average activity; read-out: Rat Brain Extract FAAH IC50
# T1 construct: For the assay of FAAH activity in rat brain membrane (RBM) homogenates; tissue Charles River (animals); host or cells: rat whole brain, membrane fraction
# T1 sequence (P97612 1-579): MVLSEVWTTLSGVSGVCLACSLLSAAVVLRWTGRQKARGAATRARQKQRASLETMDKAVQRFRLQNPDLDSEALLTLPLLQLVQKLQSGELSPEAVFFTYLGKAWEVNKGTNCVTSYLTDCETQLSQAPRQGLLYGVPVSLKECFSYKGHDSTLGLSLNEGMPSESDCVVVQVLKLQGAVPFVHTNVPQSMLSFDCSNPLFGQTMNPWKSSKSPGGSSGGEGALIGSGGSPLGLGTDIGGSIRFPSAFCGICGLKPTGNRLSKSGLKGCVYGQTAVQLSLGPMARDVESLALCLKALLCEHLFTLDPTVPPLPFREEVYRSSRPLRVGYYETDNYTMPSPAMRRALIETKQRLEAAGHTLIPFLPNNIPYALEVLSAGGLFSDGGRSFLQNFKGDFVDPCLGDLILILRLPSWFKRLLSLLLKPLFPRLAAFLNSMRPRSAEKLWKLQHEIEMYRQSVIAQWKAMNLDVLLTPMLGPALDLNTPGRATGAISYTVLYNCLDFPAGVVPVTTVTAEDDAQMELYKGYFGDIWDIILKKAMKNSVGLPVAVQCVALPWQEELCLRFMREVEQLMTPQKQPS
# Procedure, shortened: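 Membranes from female CD rat brain (Tris pH 7.4/EDTA/MgCl2 resuspension), 7 μg protein, incubated 10 min at 37 °C with [3H]anandamide plus […] unlabelled AEA, 1 mg/mL fatty acid-free BSA, Tris-HCl pH 6.5, 1 mM EDTA, 1% DMSO. [3H]ethanolamine separated by chloroform/methanol extraction or charcoal filtration, scintillation-counted; IC50 derived.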
# [2] = molecular target: T2, FAAH (Homo sapiens, UniProt O00519); assay: FAAH inhibition, human brain membrane homogenate assay; type: biochemical; details: human brain homogenate; average activity; read-out: Human brain Extract FAAH IC50
# T2 construct: Reactions were initiated by adding 12.5 μg of brain microsome; tissue ABS, Inc; host or cells: human brain cerebral cortex, membrane/microsome fraction pooled from 3 donors
# T2 sequence (O00519 1-579): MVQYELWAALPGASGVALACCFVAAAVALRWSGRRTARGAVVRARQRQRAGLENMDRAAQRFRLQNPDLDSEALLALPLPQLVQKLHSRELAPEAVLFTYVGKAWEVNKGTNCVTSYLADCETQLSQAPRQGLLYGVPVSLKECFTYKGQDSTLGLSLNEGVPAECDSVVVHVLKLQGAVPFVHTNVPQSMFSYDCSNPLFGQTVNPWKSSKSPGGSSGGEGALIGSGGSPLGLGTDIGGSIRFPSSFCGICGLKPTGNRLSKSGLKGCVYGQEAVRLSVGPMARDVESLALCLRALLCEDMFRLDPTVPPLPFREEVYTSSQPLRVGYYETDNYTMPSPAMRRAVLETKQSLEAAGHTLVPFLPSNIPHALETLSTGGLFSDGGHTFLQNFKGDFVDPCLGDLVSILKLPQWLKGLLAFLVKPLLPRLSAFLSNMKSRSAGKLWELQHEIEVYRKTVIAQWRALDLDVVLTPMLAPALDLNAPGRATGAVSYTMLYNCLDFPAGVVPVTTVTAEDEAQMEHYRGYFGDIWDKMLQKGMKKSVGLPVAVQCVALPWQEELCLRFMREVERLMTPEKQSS
SMILES,IC50 [1],IC50 [2]
"COc1cc(NC(=O)C(=O)c2c(C)n(Cc3ccc(Cl)cc3)c3cccnc23)ccn1 [Compound 3, 2-(1-(4-chlorobenzyl)-2-methyl-1H-pyrrolo[3,2-b]pyridin-3-yl)-N-(2-methoxypyridin-4-yl)-2-oxoacetamide]",< 100 nM,< 100 nM
"COc1cc(NC(=O)C(=O)c2c(C)n(Cc3ccc(Cl)cc3)c3ccc(C(=O)O)cc23)ccn1 [Compound 4, 1-(4-chlorobenzyl)-3-(2-(2-methoxypyridin-4-ylamino)-2-oxoacetyl)-2-methyl-1H-indole-5-carboxylic acid]",1000 to 10000 nM,1000 to 10000 nM
"COc1ccc2c(c1)c(C(=O)C(=O)Nc1ccnc(OC)c1)c(C)n2Cc1cccnc1 [Compound 78, 2-(5-methoxy-2-methyl-1-(pyridin-3-ylmethyl)-1H-indol-3-yl)-N-(2-methoxypyridin-4-yl)-2-oxoacetamide]",100 to 1000 nM,100 to 1000 nM
"COc1ccc2c(c1)c(C(=O)C(=O)Nc1ccnc(OC)c1)c(C)n2Cc1ccc(Cl)cn1 [Compound 79, 2-(1-((5-chloropyridin-2-yl)methyl)-5-methoxy-2-methyl-1H-indol-3-yl)-N-(2-methoxypyridin-4-yl)-2-oxoacetamide]",< 100 nM,< 100 nM
"COc1cc(NC(=O)C(=O)c2c(C)n(Cc3ccc(Cl)cc3)c3cc(OC)c(Cl)cc23)ccn1 [Compound 80, 2-(5-chloro-1-(4-chlorobenzyl)-6-methoxy-2-methyl-1H-indol-3-yl)-N-(2-methoxypyridin-4-yl)-2-oxoacetamide]",< 100 nM,< 100 nM
"COc1ccc2c(c1)c(C(=O)C(=O)Nc1ccnc(OC)c1)c(C)n2Cc1ncc(F)cc1F [Compound 81, 2-(1-((3,5-difluoropyridin-2-yl)methyl)-5-methoxy-2-methyl-1H-indol-3-yl)-N-(2-methoxypyridin-4-yl)-2-oxoacetamide]",< 100 nM,< 100 nM
"COc1ccc2c(c1)c(C(=O)C(=O)Nc1ccnc(OC)c1)c(C)n2Cc1ncc(Cl)cc1Cl [Compound 82, 2-(1-((3,5-dichloropyridin-2-yl)methyl)-5-methoxy-2-methyl-1H-indol-3-yl)-N-(2-methoxypyridin-4-yl)-2-oxoacetamide]",< 100 nM,< 100 nM
"COc1ccc2c(c1)c(C(=O)C(=O)Nc1ccnc(OC)c1)c(C)n2Cc1ncccn1 [Compound 83, 2-(5-methoxy-2-methyl-1-(pyrimidin-2-ylmethyl)-1H-indol-3-yl)-N-(2-methoxypyridin-4-yl)-2-oxoacetamide]",1000 to 10000 nM,1000 to 10000 nM
"COc1ccc2c(c1)c(C(=O)C(=O)Nc1ccnc(OC)c1)c(C)n2Cc1ccc(C)cn1 [Compound 84, 2-(5-methoxy-2-methyl-1-((5-methylpyridin-2-yl)methyl)-1H-indol-3-yl)-N-(2-methoxypyridin-4-yl)-2-oxoacetamide]",< 100 nM,< 100 nM
"COc1cc(NC(=O)C(=O)c2c(C)n(Cc3ccc(F)cn3)c3ccc(C)cc23)ccn1 [Compound 85, 2-(1-((5-fluoropyridin-2-yl)methyl)-2,5-dimethyl-1H-indol-3-yl)-N-(2-methoxypyridin-4-yl)-2-oxoacetamide]",< 100 nM,< 100 nM
"COc1ccc2c(c1)c(C(=O)C(=O)Nc1ccnc(OC)c1)c(C)n2Cc1ccc(Cl)nn1 [Compound 86, 2-(1-((6-chloropyridazin-3-yl)methyl)-5-methoxy-2-methyl-1H-indol-3-yl)-N-(2-methoxypyridin-4-yl)-2-oxoacetamide]",< 100 nM,< 100 nM
"COc1ccc2c(c1)c(C(=O)C(=O)Nc1ccnc(OC)c1)c(C)n2Cc1ncc(Cl)cc1F [Compound 87, 2-(1-((5-chloro-3-fluoropyridin-2-yl)methyl)-5-methoxy-2-methyl-1H-indol-3-yl)-N-(2-methoxypyridin-4-yl)-2-oxoacetamide]",< 100 nM,< 100 nM
"COc1cc(NC(=O)C(=O)c2c(C)n(Cc3ccc(Cl)cc3)c3cc(F)c(C)cc23)ccn1 [Compound 89, 2-(1-(4-chlorobenzyl)-6-fluoro-2,5-dimethyl-1H-indol-3-yl)-N-(2-methoxypyridin-4-yl)-2-oxoacetamide]",< 100 nM,< 100 nM
"COc1cc(NC(=O)C(=O)c2c(C)n(Cc3ccc(Cl)cn3)c3cc(F)c(C)cc23)ccn1 [Compound 90, 2-(1-((5-chloropyridin-2-yl)methyl)-6-fluoro-2,5-dimethyl-1H-indol-3-yl)-N-(2-methoxypyridin-4-yl)-2-oxoacetamide]",< 100 nM,< 100 nM
"COc1cc(NC(=O)C(=O)c2c(C)n(Cc3ccc(Cl)cc3F)c3cc(F)c(OC)cc23)ccn1 [Compound 91, 2-(1-(4-chloro-2-fluorobenzyl)-6-fluoro-5-methoxy-2-methyl-1H-indol-3-yl)-N-(2-methoxypyridin-4-yl)-2-oxoacetamide]",< 100 nM,< 100 nM
"COc1cc(NC(=O)C(=O)c2c(C)n(Cc3ccc(Cl)cc3Cl)c3cc(F)c(OC)cc23)ccn1 [Compound 92, 2-(1-(2,4-dichlorobenzyl)-6-fluoro-5-methoxy-2-methyl-1H-indol-3-yl)-N-(2-methoxypyridin-4-yl)-2-oxoacetamide]",< 100 nM,< 100 nM
"COc1cc(NC(=O)C(=O)c2c(C)n(Cc3ccc(Cl)cc3)c3cc(Cl)c(C)cc23)ccn1 [Compound 93, 2-(6-chloro-1-(4-chlorobenzyl)-2,5-dimethyl-1H-indol-3-yl)-N-(2-methoxypyridin-4-yl)-2-oxoacetamide]",< 100 nM,< 100 nM
"COc1cc(NC(=O)C(=O)c2c(C)n(Cc3ccc(Cl)cn3)c3cc(Cl)c(C)cc23)ccn1 [Compound 94, 2-(6-chloro-1-((5-chloropyridin-2-yl)methyl)-2,5-dimethyl-1H-indol-3-yl)-N-(2-methoxypyridin-4-yl)-2-oxoacetamide]",< 100 nM,< 100 nM

# Source: patent publication US20150175599A1, “FAAH Inhibitors” (Ironwood Pharmaceuticals, Inc., priority 2010, published 2015)
